Reference: ChEMBL document CHEMBL5331124, “Degradation of Hexokinase 2 Blocks Glycolysis and Induces GSDME-Dependent Pyroptosis to Amplify Immunogenic Cell Death for Breast Cancer Therapy” (J Med Chem, 2023)
Activity calls are given as the source filed them. No cut-off for these calls is given here.

What was measured:
4T1 [1] = experiment: Induction of pyroptosis in mouse 4T1 cells assessed as viable cells at 20 uM incubated for 36 hrs by annexin V-FITC staining based flow cytometry analysis (reference value: 64 %); format: functional; settings: read-out: Activity
4T1 [2] = experiment: Antitumor immunity against mouse 4T1 cells implanted in BALB/c mouse model assessed as downregulation of IL-10 expression in mouse tumor by ELISA analysis; format: functional, cell-based
4T1 [3] = experiment: Induction of pyroptosis in mouse 4T1 cells assessed as reduction in full length caspase-3 level at 20 uM incubated for 36 hrs; format: functional, cell-based
4T1 [4] = experiment: Antitumor immunity against mouse 4T1 cells implanted in BALB/c mouse model assessed as increase in ATP release in cell supernatant at 20 uM measured for 36 hrs by ELISA analysis; format: functional, cell-based
4T1 [5] = experiment: Potency index, ratio of IC50 for lonidamine to test compound IC50 for mouse 4T1 cells assessed as cell growth inhibition measured for 72 hrs by MTT assay; format: functional
4T1 [6] = experiment: Antitumor immunity activity against mouse 4T1 cells implanted in BALB/c mouse assessed as increase in proportion of cytotoxic CD8 positive T cells in tumor by flow cytometry analysis; format: functional, cell-based
MDA-MB-231 [7] = experiment: Induction of pyroptosis in human MDA-MB-231 cells assessed as decrease in full length GSDME level at 20 uM incubated for 36 hrs by Western blot analysis; format: functional, cell-based
4T1 [8] = experiment: Antiproliferative activity against mouse 4T1 cells assessed as cell growth inhibition measured for 72 hrs by MTT assay; format: functional, cell-based; settings: 4T1, 72 h
[9] = Toxicity in BALB/c mouse implanted with mouse 4T1 cells assessed as pathological changes in spleen at 50 mg/kg, ip measured after 25 days in presence of cisplatin by Hematoxylin -eosin staining based analysis; format: organism-based; settings: in vivo, 600 h, time 25 day
[10] = target: Protein cereblon/Hexokinase-2 (Mus musculus) (UniProt O08528+Q8C7D2); experiment: PROTAC activity at CRBN/HK2 in mouse 4T1 cells assessed as HK2 degradation at 20 uM incubated for 36 hrs; format: cell-based
MDA-MB-231 [11] = experiment: Cytotoxicity against human MDA-MB-231 cells assessed as inhibition of cell growth at 1 to 100 uM incubated for 48 hrs by CCK-8 assay; format: functional, cell-based; settings: dose 1-100 µM
MDA-MB-231 [12] = experiment: Antitumor immunity against human MDA-MB-231 cells xenografted in BALB/c nude mouse at 50 mg/kg, ip measured after 28 days; format: functional, organism-based; settings: time 28.0 day
[13] = Toxicity in BALB/c nude mouse xenografted with human MDA-MB-231 cells assessed as effect on red blood cells at 50 mg/kg, ip measured after 30 days by routine blood test; format: organism-based; settings: in vivo, 720 h, time 30 day
[14] = Toxicity in BALB/c mouse implanted with mouse 4T1 cells assessed as pathological changes in kidney at 50 mg/kg, ip measured after 25 days in presence of cisplatin by Hematoxylin -eosin staining based analysis; format: organism-based; settings: in vivo, 600 h, time 25 day
[15] = target: T1, Hexokinase-2 (Mus musculus) (UniProt O08528); experiment: Induction of HK2 degradation in mouse 4T1 cells upto 200 uM measured at 12 to 36 hrs; format: cell-based; settings: time 12-36 hrs
T1 sequence (whole entry): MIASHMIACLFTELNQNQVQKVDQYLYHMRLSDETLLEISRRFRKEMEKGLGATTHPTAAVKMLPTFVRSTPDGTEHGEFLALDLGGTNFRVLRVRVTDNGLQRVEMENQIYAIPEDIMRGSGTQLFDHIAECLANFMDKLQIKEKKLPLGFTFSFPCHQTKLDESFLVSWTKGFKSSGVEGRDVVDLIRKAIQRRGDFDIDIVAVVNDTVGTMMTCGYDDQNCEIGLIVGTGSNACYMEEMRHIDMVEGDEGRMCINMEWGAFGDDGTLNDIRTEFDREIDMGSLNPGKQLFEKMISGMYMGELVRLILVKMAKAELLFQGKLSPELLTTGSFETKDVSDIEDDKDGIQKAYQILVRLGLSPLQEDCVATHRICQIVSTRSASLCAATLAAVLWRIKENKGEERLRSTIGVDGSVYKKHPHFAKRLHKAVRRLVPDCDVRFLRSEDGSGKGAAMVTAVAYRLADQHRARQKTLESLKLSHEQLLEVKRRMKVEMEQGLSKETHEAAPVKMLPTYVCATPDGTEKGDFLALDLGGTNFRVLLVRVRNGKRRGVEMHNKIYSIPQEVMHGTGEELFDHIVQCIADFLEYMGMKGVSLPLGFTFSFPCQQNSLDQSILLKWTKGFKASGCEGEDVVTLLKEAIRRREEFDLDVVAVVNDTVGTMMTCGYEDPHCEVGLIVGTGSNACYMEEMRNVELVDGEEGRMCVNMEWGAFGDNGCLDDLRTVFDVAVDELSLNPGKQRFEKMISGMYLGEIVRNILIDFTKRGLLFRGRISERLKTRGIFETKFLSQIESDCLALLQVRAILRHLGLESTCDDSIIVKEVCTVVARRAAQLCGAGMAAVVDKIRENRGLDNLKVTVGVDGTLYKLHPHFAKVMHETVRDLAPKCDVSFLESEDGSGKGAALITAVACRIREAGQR

4T1 [16] = experiment: Inhibition of glycolysis in mouse 4T1 cells assessed as reduction in oxygen consumption rate at 20 uM incubated for 1 to 4 hrs by seahorse analyzer method; format: functional, cell-based; settings: time 1-4 hrs
4T1 [17] = experiment: Induction of pyroptosis in mouse 4T1 cells assessed as late apoptotic cells at 20 uM incubated for 36 hrs by annexin V-FITC staining based flow cytometry analysis (Rvb =13.6 %); format: functional
4T1 [18] = experiment: Antitumor immunity against mouse 4T1 cells implanted in BALB/c mouse model assessed as increase in LDH release in cell supernatant at 20 uM measured for 36 hrs by ELISA analysis; format: functional, cell-based
4T1 [19] = experiment: Induction of mitochondrial damage in mouse 4T1 cells assessed as reduction in lactic acid production at 20 uM measured for 36 hrs; format: functional, cell-based
Hexokinase-2 = target: T2, Hexokinase-2 (Mus musculus, UniProt O08528); experiment: (§1) Induction of HK2 degradation in mouse 4T1 cells measured for 36 hrs; format: cell-based
T2 sequence (O08528 whole entry): T1 sequence (whole entry)

[20] = target: T1, Hexokinase-2 (Mus musculus); experiment: as §1; format: cell-based
4T1 [21] = experiment: Induction of pyroptosis in mouse 4T1 cells assessed as dead cells at 20 uM incubated for 36 hrs by annexin V-FITC staining based flow cytometry analysis (Rvb =17.6 %); format: functional
4T1 [22] = experiment: Downregulation of PD-L1 expression in mouse 4T1 cells membrane at 20 uM measured for 36 hrs; format: functional, cell membranes
MDA-MB-231 [23] = experiment: Antitumor activity against human MDA-MB-231 cells xenografted in BALB/c nude mouse assessed as reduction in HK2 expression level at 50 mg/kg, ip measured after 28 days; format: functional, organism-based; settings: time 28.0 day
[24] = Toxicity in BALB/c mouse implanted with mouse 4T1 cells assessed as pathological changes in kidney at 50 mg/kg, ip measured after 25 days by Hematoxylin -eosin staining based analysis; format: organism-based; settings: in vivo, 600 h, time 25 day
4T1 [25] = experiment: Upregulation of PD-L1 expression in mouse 4T1 cells cytoplasm at 20 uM measured for 36 hrs; format: functional, subcellular
4T1 [26] = experiment: Inhibition of colony formation in mouse 4T1 cells at 5 to 20 uM incubated for 48 hrs by giemsa staining based analysis; format: functional, cell-based; settings: dose 5-20 µM
[27] = Cytotoxicity against human HUVEC-T1 cell assessed as inhibition of cell growth at 1 to 100 uM incubated for 48 hrs by CCK-8 assay; format: toxicity, cell-based; settings: dose 1-100 µM

Chain of Protein cereblon/Hexokinase-2 (Mus musculus) (Q8C7D2 whole entry, looked up, one chain of several): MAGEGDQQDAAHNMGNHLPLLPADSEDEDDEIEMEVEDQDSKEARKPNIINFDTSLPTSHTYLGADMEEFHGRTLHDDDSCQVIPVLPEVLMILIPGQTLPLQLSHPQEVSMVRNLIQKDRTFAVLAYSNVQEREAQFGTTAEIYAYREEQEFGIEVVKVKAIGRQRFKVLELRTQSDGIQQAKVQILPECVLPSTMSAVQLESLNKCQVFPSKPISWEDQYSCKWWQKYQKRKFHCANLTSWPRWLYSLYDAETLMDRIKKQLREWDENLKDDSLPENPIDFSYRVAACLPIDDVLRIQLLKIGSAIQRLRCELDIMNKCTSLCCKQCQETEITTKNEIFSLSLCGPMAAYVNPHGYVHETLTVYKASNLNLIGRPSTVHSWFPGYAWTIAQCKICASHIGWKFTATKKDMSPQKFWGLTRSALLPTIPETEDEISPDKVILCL

O=C1CCC(N2C(=O)c3cccc(NCCCCNC(=O)c4nn(Cc5ccc(Cl)cc5Cl)c5ccccc45)c3C2=O)C(=O)N1 (stereo not drawn)
viability at 20 µM (4T1 [1]): 37.7%
Activity (4T1 [2]): Active
Activity (4T1 [3]): Active
Activity (4T1 [4]): Active
Ratio IC50 (4T1 [5]): 30.1
Activity (4T1 [6]): Active
Activity (MDA-MB-231 [7]): Active
IC50 (4T1 [8]): 5.08 µM
Activity [9]: Non-Toxic
Activity [10]: Active
Activity (MDA-MB-231 [11]): Active
Activity (MDA-MB-231 [12]): inactive
Activity [13]: Non-Toxic
Activity [14]: Non-Toxic
Activity [15]: Active
inhibition (4T1 [16]): Active
Activity (4T1 [17]): 43%
Activity (4T1 [18]): Active
Activity (4T1 [19]): Active
DC50 (Hexokinase-2): 2.56 µM
Activity [20]: Dose-Dependent Effect
Activity (4T1 [21]): 9.44%
Activity (4T1 [22]): Active
Activity (MDA-MB-231 [23]): Active
Activity [24]: Non-Toxic
Activity (4T1 [25]): Active
inhibition (4T1 [26]): Active
Activity [27]: Toxic
